This experiment addresses T1, P. falciparum heat shock protein 90 (PfHsp90) (Plasmodium falciparum, UniProt Q8IC05).
T1 construct: gene PF3D7_0708400
Description: bis-ANS fluorescence competitive binding assay with purified recombinant GHKL domain.

The structures appear in SMILES notation.

The IC50 is the concentration that inhibits the measured activity by half.

T1 sequence (Q8IC05 1-211 limits assumed): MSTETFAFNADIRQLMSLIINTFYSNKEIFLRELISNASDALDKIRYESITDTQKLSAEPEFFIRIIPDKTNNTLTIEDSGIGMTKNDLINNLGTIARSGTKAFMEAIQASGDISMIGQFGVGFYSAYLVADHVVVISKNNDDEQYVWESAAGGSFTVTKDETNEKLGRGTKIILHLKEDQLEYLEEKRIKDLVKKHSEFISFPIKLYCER

For `CC1NCCc2c1[nH]c1ccc(Br)cc21` (centres unmarked) [21A], the IC50 was 23.1 ± 8.8 µM.

As to `CC1NCCc2c1[nH]c1ccc(Cl)cc21` (centres unmarked) [17A], the IC50 is 12.2 ± 2.3 µM.

These data come from publication PMC5131496, “In vitro and in vivo anti-malarial activity of novel harmine-analog heat shock protein 90 inhibitors: a possible partner for artemisinin” (Malaria Journal, 2016).
